Data published in US7666874B2, “Pyrimidylaminobenzamide derivatives for hypereosinophilic syndrome” (Novartis AG, priority 2005, dated 2010).

Key:
[1] = test system: TEL-PDGFRβ; assay: Murine bone marrow transplant model of TEL-PDGFRβ-induced myeloproliferative disease; type: in vivo, mouse (Balb/C); details: TEL-PDGFRβ transplanted mice
Procedure: (§1) Murine bone marrow transplant experiments are performed as previously described. MSCV-GFP retroviral supernatants are titered by transducing Ba/F3 cells with supernatant (plus polybrene, 10 μg/mL) and analyzing for the percentage of GFP+ cells by flow cytometry at 48 h post-transduction. Balb/C donor mice (Taconic) are treated for 5-6 days with 5-fluorouracil (150 mg/kg, intraperitoneal injection). Bone marrow cells from donor mice are harvested, treated with red blood cell lysis buffer, and cultured 24 h in transplant medium (RPMI+10% FBS+6 ng/mL IL-3, 10 ng/mL IL-6, and 10 ng/mL stem cell factor). Cells are treated by spin infection with retroviral supernatants (1 mL supernatant per 4×10^6 cells, plus polybrene) and centrifuged at 2500 rpm for 90 min. 24 h later, the spin infection is repeated, then cells are washed, resuspended in Hank's balanced salt solution, and injected into lateral tail veins of lethally irradiated (2×450 rad) Balb/C recipient mice (Taconic) at 0.5-1×10^6 cells/mouse. […] Animals are sacrificed when they had palpable splenomegaly or were moribund, or, if healthy, 7 days after sacrifice of the last animal in the placebo group.
(§2) Peripheral blood is collected from the retroorbital cavity using heparinized glass capillary tubes and analyzed by automated complete and differential blood cell counts and smears (stained with Wright and Giemsa). Single cell suspensions of spleen and bone marrow are prepared by pressing tissue through a cell strainer, followed by red blood cell lysis. Cells are frozen in 90% FBS, 10% DMSO.
(§3) For histopathology, tissues are fixed for at least 72 h in 10% neutral buffered formalin, dehydrated in alcohol, cleared in xylene, and infiltrated with paraffin on an automated processor (Leica). The tissue sections (4 μm) from paraffin-embedded tissue blocks are placed on charged slides and deparaffinized in xylene, rehydrated through graded alcohol solutions, and stained with hematoxylin and eosin.
(§4) For flow cytometry, cells are washed in PBS+1% bovine serum albumin (BSA), blocked with Fc-Block (BD Pharmingen) for 10 min on ice, and stained with monoclonal antibodies in PBS+1% BSA for 20 min on ice. Antibodies used are: allophycocyanin (APC)-conjugated Gr1, CD19, and TCRB; and phycoethrin (PE)-conjugated Mac-1, B220, and CD3 (BD Pharmingen). Flow cytometric analysis is performed on a FACSCalibur instrument and analyzed with CellQuest software. Viability is assessed by incubating cells with 7AAD (BD Pharmingen) for 5 min prior to flow cytometry. Cells are gated for viability (using forward/side scatter and 7AAD) and GFP positivity, and 10,000 events are analyzed from this subset for marker expression.
Statistical significance of differences between Compound (II)- and placebo-treated groups in survival time, white blood cell counts, and spleen weights are assessed using a two-sided Mann-Whitney U-test (Wilcoxon rank sum test).
A murine bone marrow transplant protocol is used to model myeloproliferative disease caused by TEL-PDGFRβ and FIP1L1-PDGFRα. Retroviral transduction of these fusion kinases into bone marrow cells of 5FU-treated donor mice, followed by transplantation into lethally irradiated recipients, produces a rapidly fatal myeloproliferative phenotype characterized by leukocytosis with myeloid predominance, splenomegaly, and extramedullary hematopoiesis.
(§5) Donor bone marrow cells are transduced with a murine retroviral vector expressing TEL-PDGFRβ or FIP1L1-PDGFRα and transplanted into recipients.

[2] = biological target: T1, Ba/F3 cells transformed by TEL-PDGFRβ T681I mutant (Homo sapiens, UniProt P09619, T681I); assay: Proliferation of Ba/F3 cells transformed by TEL-PDGFRβ T681I mutant; type: cell-based; details: Ba/F3 cells transformed with TEL-PDGFRβ T681I mutant
T1 construct: TEL (ETV6) portion (fusion partner); expressed in transfected cells; host or cells: Ba/F3 cells (retroviral transduction, MSCV-neo); the other entry of the earlier key: ETV6 (P41212, Transcription factor ETV6)
T1 sequence (P09619 554-1106 T681I limits assumed): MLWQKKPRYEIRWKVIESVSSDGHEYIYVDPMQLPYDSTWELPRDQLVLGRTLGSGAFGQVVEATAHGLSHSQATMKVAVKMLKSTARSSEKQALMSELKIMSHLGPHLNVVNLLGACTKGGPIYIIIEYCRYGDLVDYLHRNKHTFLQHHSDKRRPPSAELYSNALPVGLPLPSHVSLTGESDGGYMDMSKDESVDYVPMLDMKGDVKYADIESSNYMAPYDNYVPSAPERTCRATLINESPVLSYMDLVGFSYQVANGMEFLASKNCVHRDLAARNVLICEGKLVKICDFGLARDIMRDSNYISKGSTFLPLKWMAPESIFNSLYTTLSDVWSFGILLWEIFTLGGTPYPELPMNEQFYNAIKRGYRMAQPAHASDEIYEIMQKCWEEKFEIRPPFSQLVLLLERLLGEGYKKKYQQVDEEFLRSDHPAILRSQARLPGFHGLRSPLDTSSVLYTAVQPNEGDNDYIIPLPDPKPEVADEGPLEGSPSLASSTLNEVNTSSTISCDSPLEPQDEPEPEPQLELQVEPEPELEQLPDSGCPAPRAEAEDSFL
Procedure: (§6) TEL-PDGFRβ [T/P], FIP1L1-PDGFRα [F/P], and FIP1L1-PDGFRα T6741 cloned in MSCV-IRES-GFP [MSCV-GFP], and TEL-PDGFRβ, TEL-PDGFRβ T681I, and TEL-FGFR3 [T/F] are cloned in MSCV-neomycin [MSCV-neo].
(§7) Ba/F3 cells are cultured in RPMI 1640 (RPMI)+10% FBS+1 ng/mL mouse interleukin (IL)-3. Retroviral supernatants are generated and used to transduce Ba/F3 cells. T/P MSCV-neo and T/F MSCV-neo cell lines are selected with 1 mg/mL G418 in the presence of IL-3 for 8-10 days. F/P MSCV-GFP cell lines are selected in RPMI lacking IL-3 for 7-10 days. […] Transformed Ba/F3 cells are grown in RPMI lacking IL-3.
(§8) The effects of compounds on viability and proliferation of the cells were determined using the luminescent ATP Detection assay kit ATPLite™ from Perkin Elmer Life Sciences (Cat. No: 6016947) according to the instructions of the suppliers. This assay system is based on the production of light (luminescence) caused by the reaction of ATP with added luciferase and D-luciferin. […]
(§9) The effect of the compound was expressed as percent reduction of the control signal. The TGI50 values were determined from the dose response curves by graphical extrapolation.

[3] = biological target: T2, FIP1L1-PDGFRα (Homo sapiens, UniProt P16234); assay: Murine bone marrow transplant model of FIP1L1-PDGFRα-induced myeloproliferative disease; type: in vivo, mouse (Balb/C); details: FIP1L1-PDGFRα transplanted mice
T2 construct: FIP1L1 portion (fusion partner); expressed in transfected cells; host or cells: Balb/C mouse donor bone marrow cells (retroviral transduction, MSCV-GFP), transplanted into Balb/C recipients; the other entry of the earlier key: FIP1L1 (Q6UN15, Pre-mRNA 3'-end-processing factor FIP1)
T2 sequence (P16234 593-1089 limits assumed): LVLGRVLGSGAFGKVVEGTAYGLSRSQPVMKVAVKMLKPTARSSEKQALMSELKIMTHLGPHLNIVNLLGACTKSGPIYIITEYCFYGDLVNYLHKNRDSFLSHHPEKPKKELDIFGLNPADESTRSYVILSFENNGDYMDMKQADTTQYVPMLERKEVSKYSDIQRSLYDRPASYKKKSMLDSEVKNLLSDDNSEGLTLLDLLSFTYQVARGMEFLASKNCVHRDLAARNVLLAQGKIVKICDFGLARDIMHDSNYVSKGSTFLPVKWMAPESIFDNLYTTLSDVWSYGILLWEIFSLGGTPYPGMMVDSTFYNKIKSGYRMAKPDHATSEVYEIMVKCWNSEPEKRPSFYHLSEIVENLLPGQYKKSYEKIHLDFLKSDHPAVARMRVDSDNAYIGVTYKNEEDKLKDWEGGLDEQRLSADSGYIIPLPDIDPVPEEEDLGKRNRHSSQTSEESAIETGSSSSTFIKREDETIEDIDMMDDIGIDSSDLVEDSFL
Procedure: as §1, §2, §3, §4
A murine bone marrow transplant protocol is used to model myeloproliferative disease caused by TEL-PDGFRβ and FIP1L1-PDGFRα.
as §5

[4] = biological target: T3, Ba/F3 Tel-PDGFRβ cells (Homo sapiens, UniProt P09619); assay: IL-3 independence cell proliferation assay (ATPLite), Ba/F3 Tel-PDGFRβ; type: cell-based
T3 construct: TEL-PDGFRβ, TEL-PDGFRβ T681I, and TEL-FGFR3 [T/F] are cloned in MSCV-neomycin [MSCV-neo]; fused on or other part: P41212 (Transcription factor ETV6)
T3 sequence (P09619 whole entry, stated change not applied, the tested form may be a part): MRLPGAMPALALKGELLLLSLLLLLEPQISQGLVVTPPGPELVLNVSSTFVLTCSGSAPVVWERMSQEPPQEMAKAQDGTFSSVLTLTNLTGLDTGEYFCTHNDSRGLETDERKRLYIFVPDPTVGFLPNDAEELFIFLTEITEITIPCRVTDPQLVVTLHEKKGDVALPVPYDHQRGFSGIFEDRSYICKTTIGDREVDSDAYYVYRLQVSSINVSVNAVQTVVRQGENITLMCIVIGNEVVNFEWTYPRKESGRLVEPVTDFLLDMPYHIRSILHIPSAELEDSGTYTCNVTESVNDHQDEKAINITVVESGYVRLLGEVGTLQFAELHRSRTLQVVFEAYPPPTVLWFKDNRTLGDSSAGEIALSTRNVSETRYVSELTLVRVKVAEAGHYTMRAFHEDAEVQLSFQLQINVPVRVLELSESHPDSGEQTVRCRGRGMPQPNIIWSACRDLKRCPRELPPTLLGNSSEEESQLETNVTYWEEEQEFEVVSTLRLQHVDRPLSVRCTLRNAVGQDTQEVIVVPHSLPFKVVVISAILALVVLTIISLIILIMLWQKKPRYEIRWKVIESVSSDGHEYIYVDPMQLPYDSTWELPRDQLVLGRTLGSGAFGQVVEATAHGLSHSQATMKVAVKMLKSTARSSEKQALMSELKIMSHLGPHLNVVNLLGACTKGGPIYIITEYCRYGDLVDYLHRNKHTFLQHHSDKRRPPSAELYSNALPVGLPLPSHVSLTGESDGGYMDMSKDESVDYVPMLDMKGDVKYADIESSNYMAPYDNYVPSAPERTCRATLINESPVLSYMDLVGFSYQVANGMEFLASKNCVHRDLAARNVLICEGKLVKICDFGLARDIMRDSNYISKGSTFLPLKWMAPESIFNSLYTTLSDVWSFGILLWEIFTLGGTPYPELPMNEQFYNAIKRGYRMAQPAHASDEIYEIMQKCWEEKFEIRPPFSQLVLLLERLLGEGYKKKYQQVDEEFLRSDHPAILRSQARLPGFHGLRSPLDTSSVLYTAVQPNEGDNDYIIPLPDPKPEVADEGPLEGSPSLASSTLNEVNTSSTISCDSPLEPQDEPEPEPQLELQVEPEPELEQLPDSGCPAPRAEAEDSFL
Procedure: as §6, §7, §8, §9

[5] = test system: TEL-PDGFRβ; assay: Western blot of TEL-PDGFRβ phosphorylation and signaling intermediates in Ba/F3 cells; type: cell-based
Procedure: For T/P: Ba/F3 cells stably expressing T/P or T/F are treated with serum starvation in plain RPMI 1640 for 4 hours prior to lysis. The cell extracts are clarified by centrifugation and used for immunoprecipitation or immunoblotting. The enzyme-linked immunoblotting procedures are performed as described. Applied antibodies include: rabbit anti-PDGFRβ serum (Pharmingen); rabbit anti-PI3K (p85) serum; mouse anti-phosphotyrosine 4G10 (Upstate Biotechnology); antibodies against FGFR3, phospho-PI3K p85 (Tyr-508) (Santa Cruz Biotechnology); PLCγ, phospho-PLCγ (Tyr-783) (Cell Signaling).

[6] = daily oral gavage 150 mg/kg/day from day 11
[7] = daily oral gavage 150 mg/kg/day from day 11 after transplant

## Cc1cn(-c2cc(NC(=O)c3ccc(C)c(Nc4nccc(-c5cccnc5)n4)c3)cc(C(F)(F)F)c2)cn1 [Compound (II), 4-methyl-3-[[4-(3-pyridinyl)-2-pyrimidinyl]amino]-N-[5-(4-methyl-1H-imidazol-1-yl)-3-(trifluoromethyl)phenyl] benzamide]
[1]; compared to placebo
  FACS analysis of spleen, B220+/CD19+ cells: slightly increased percentage
  FACS analysis of spleen, Gr1+/Mac1+ cells: consistently reduced percentage
  Histopathology of hematopoietic organs: significantly less severe myeloproliferative disease
[1]; [6]
  Liver weight, Mean: 1492.5 mg
  Liver weight, Median: 1535 mg
  Liver weight, Range: 1320 to 1590 mg
  Spleen weight, Mean: 350.0 mg
  Spleen weight, Median: 340 mg
  Spleen weight, Range: 250 to 470 mg
  WBC, Median: 1.59e+07 mL⁻¹
  WBC, Range: 10.9-33.5 ×10^6/mL
[1]; [7]
  WBC, Mean: 1.86e+07 mL⁻¹
[1]; placebo median latency 17 days, p<0.001
  Survival: 26 days
[1]; vs 563.7 for placebo, p<0.05
  Total white blood cells (WBC): 18.6 ×10^6 cells/mL
[2]
  Inhibition of transformed Ba/F3 cells: inhibited
[3]; compared to placebo
  Extramedullary hematopoiesis in liver: notable absence of any extramedullary hematopoiesis
  Histopathology of spleen: striking preservation of normal splenic architecture
[3]; [6]
  Liver weight, Mean: 1128.0 mg
  Liver weight, Median: 1090 mg
  Liver weight, Range: 1080 to 1290 mg
  Spleen weight, Mean: 88.0 mg
  Spleen weight, Median: 100 mg
  Spleen weight, Range: 50 to 100 mg
  WBC, Median: 4.7e+06 mL⁻¹
  WBC, Range: 4.0-9.6 ×10^6/mL
[3]; [7]
  WBC, Mean: 5.6e+06 mL⁻¹
[3]; all placebo animals lost by day 24
  Survival: all treated animals alive and healthy until study termination: ≥ 33 days
[3]; vs 569.7 for placebo, p<0.01
  Total WBC: 5.6 ×10^6 cells/mL
[4]; Ba/F3 Tel-PDGFRβ cells, 70 h incubation, read-out: IC50, inhibition of proliferation
  GI50: < 100 nM
[4]; Ba/F3 cells transformed with TEL-PDGFRβ
  Inhibition of transformed Ba/F3 cells: inhibited
[5]
  Phosphorylation of PDGFRβ signaling intermediates including PLCγ and PI3K: effectively inhibited
  TEL-PDGFRβ tyrosine autophosphorylation: effectively inhibited
